Measurements reported in patent US8410170B2, “Use of isothiocyanates compounds in treating prostatic diseases and skin cancer” (Wuxi JC Pharmaceutical Technology Co., Ltd., priority 2005, dated 2013).
Counter-ions that a name gives are not always drawn.

Tests used:
[1] = system: xenograft B16 mouse tumor; settings: CTX 20 mg/kg/d i.p., 15 days
Experimental: The B16 mouse melanoma cells at exponential growth phase were suspended in PBS. […] Adjusted the suspension to a cell concentration of approximately 1×10^7/ml. 0.2 ml of the suspension were transplanted subcutaneously into right axillary subcutis for passaging.
Under sterile condition the xenograft B16 mouse tumor in mice was stripped from axillary subcutis. After cutting by scissors, the tumor with saline (1:3) was ground in a glass homogenizer. Monocell suspension was made with saline. […] Then adjusted the suspension to a cell density of approximately 1×10^7/ml with saline. 0.2 ml were transplanted subcutaneously into right axillary subcutis of each mouse. After transplanting, randomly divided the mouse into 5 groups, 12 each.
Tumors were taken out, sizes and weights were measured, and the percent of inhibitions were calculated.

[2] = system: non-bacterial prostatitis; assay: Therapeutic effects on non-bacterial prostatitis (Xiaozhiling injection into prostate); type: in vivo, SD rats; set-up: Histopathological score of prostatitis, Overall Average X ± SD: scale not given here
Experimental: Fifty-five male SD rats were randomly divided into 6 groups, 9 each, except the negative control group for which 10 animals were used. All animals from group 1 to 6 were anesthetized by injection of ketamine under sterile conditions and incised around 1.5 cm with a sterilized surgery scalpel at middle of abdomen. Animals in Group 1 were injected penicillin to prevent infection, and given distill water, 10 ml/kg, once a day, 5 times a week for 5 weeks. Groups from 2 to 6 injected 25% Xiaozhiling into left and right lobes of prostate, 0.1 ml for each lobe and sew the muscle and skin with #1 silk thread. The animals were then given penicillin to prevent infectious. Group 2 was served as negative control group in which animals were treated with distill water by gavage 24 hrs after the Xiaozhiling injection, once a day, 5 times a week for 5 weeks. Group 3 was served as positive control group in which animals were treated with GENURIN by gavage 24 hrs after the Xiaozhiling injection at dose of 60 mg/kg, once a day, 5 times a week (escaping weekend) for 5 weeks. […] On the last dosing day, urine samples from different groups that covered periods of 1, 2 and 3 hrs were collected.
Twenty-four hrs after the last dose, the animals were euthanized and weighed. Volume and weight of prostate were measured. The averages of the prostate weight/volume and organ coefficient (average weight of prostate/average of body weight) were calculated, and statistical analysis performed (t test).
(§1) Prostate tissues of animals from different groups were embedded with paraffin. The tissue sections were stained with H&E for histpathological examination by an anatomical pathologist.

GSTP1 = assay: Western blot to detect GSTP1 protein in LNCaP cells; type: cell-based, human; settings: LNCaP cells exposed 24 hrs
Experimental: Western blot to detect GSTP1 protein (FIG. 1): […] The cells were harvested, washed and total cellular proteins were extracted as described previously (Wang, […], et al. […] Cancer Res 61(20): 7544-51, 2001). Fifty μg cellular extracts were separated on a SDS-PAGE, electro-transferred to nitrocellulose filters, and immunoblotted initially with antibodies against GSTP1. The same membranes were stripped and re-probed with β-actin for loading control. The result was recorded by ECL films.

[3] = system: human androgen independent prostate cancer PC-3 cells; assay: Xenograft of PC-3 in nude mice; type: in vivo, BALB/c nude mice; settings: for Inhibition of PC-3 tumor growth: at terminal, diet containing 8 μM/g for 30 days
Description: Immunodeficient BALB/c nude mice, male, 5 weeks old, were purchased from Animal Center, Chinese Academy of Sciences, Shanghai, China. The animals were housed in an SPF animal lab. Human androgen independent prostate cancer PC-3 cells, in the form of a pellet (approximately 1×10^6 cells per animal), were mixed with a 50% volume of Matrigel and implanted s.c. in the flank of the animal. Twenty-four hrs after the transplant, the mice were randomly divided into two groups, eight animal each. One group served as untreated control and fed with regular AIN76 diet, and another one as treatment group in which AIN76 diet containing 8 μM/g of PEITC-NAC was provided. The animals were treated for 30 days, and tumor incidence and size were measured at day 7, 10, 22. Twenty-four hrs after the last administration, animals were euthanized, and body and tumors were weighted. Western blot was used to follow the possible change of AR expression.

androgen-induced BPH = assay: Therapeutic effects on BPH: Test Two (castrated rats, testosterone propionate; weights and histopathology); type: in vivo, SD rats; set-up: Histopathological score of BPH, Average X ± SD: scale not given here
Experimental: Thirty-six male SD rats were randomly divided into 4 groups, nine each. Group 1 was served as blank control group (pseudo-surgery control group) in which animals were under the same surgical procedures except no testis was sectioned and fed normally. Groups from 2 to 4 were served as treatment groups in which all animals were anesthetized using ketamine and castrated by removing both testises under sterile conditions. After the surgery, the penicillin was injected to prevent the animals from infection. One week later, the testosterone propionate was injected subcutaneously at dose of 5 mg/kg, once a day for a month. […] Group 3 was served as positive control group in which animals were given Proscar by gavage at dose of 0.1 mg/rat/day for a month beginning on the same day that the testosterone propionate was injected.
Twenty-four hrs after the last dose, the animals were euthanized and weighed. Volume and weight of prostate were measured. The averages of prostate volume/weight and organ coefficient (average weight of prostate/average of body weight) were calculated, and statistical analysis performed (t test).
as §1

BPH = assay: Therapeutic effects on BPH: Test One (castrated rats, testosterone propionate); type: in vivo, SD rats; settings: estradiol 0.1 mg/rat s.c., one month
Experimental: Sixty male SD rats were randomly divided into 6 groups, ten each. The animals were anesthetized using ketamine and castrated by removing testis under sterile conditions. After the surgery, the penicillin was injected to prevent the animals from infection. One week later, the testosterone propionate was injected subcutaneously at dose of 1 mg/rat for a month, once a day. Group 1 was served as a negative control group, and the animals of group 1 were given saline orally without any active pharmaceutical ingredient for a month beginning on the same day the testosterone propionate was injected. Group 2 was served as positive control group in which animals were given estradiol subcutaneously at a dose of 0.1 mg/rat for a month beginning on the same day the testosterone propionate was injected. Groups from 3 to 6 was served as drug treatment groups in which animals were given tested articles on the same day the testosterone propionate was injected.
Twenty-four hrs after the last dosage, the animals were euthanized and weighed. Volume and weight of prostate were measured. The averages of volume/weight and organ coefficient (average weight of prostate/average of body weight) were calculated, and statistical analysis performed (t test).

[4] = GENURIN 60 mg/kg gavage, 5 weeks
[5] = GENURIN 60 mg/kg, last dosing day
[6] = Proscar 0.5 mg/kg gavage, one month

O=P1(N(CCCl)CCCl)NCCCO1 (centres unmarked) [CTX, Cyclophosphamide, reference compound]
Average of Tumor Weight [1]: 0.76 ± 0.41 g
Changes in Body Weight [1]: 5.07 ± 2.64 g
Inhibition [1]: 66.23%

Cc1c(-c2ccccc2)oc2c(C(=O)OCCN3CCCCC3)cccc2c1=O [GENURIN, Flavoxate Hydrochloride, reference compound]
Average Volume of Prostate [2, 4]: 0.69 ± 0.10 cm^3
Average Weight of Prostate [2, 4]: 0.71 ± 0.09 g
Inhibition of Organ-coefficient [2, 4]: 24.62%
Organ Coefficient [2, 4]: 0.196 ± 0.03 %
Bleeding: no. of animals with score 0 ([2]; GENURIN 60 mg/kg, 9 animals): 6
Bleeding: no. of animals with score + ([2]; GENURIN 60 mg/kg, 9 animals): 3
Bleeding: no. of animals with score ++ ([2]; GENURIN 60 mg/kg, 9 animals): 0
Bleeding: no. of animals with score +++ ([2]; GENURIN 60 mg/kg, 9 animals): 0
Chronic Inflammatory Infiltration: no. of animals with score 0 ([2]; GENURIN 60 mg/kg, 9 animals): 5
Chronic Inflammatory Infiltration: no. of animals with score + ([2]; GENURIN 60 mg/kg, 9 animals): 4
Chronic Inflammatory Infiltration: no. of animals with score ++ ([2]; GENURIN 60 mg/kg, 9 animals): 0
Chronic Inflammatory Infiltration: no. of animals with score +++ ([2]; GENURIN 60 mg/kg, 9 animals): 0
Congestion: no. of animals with score 0 ([2]; GENURIN 60 mg/kg, 9 animals): 4
Congestion: no. of animals with score + ([2]; GENURIN 60 mg/kg, 9 animals): 5
Congestion: no. of animals with score ++ ([2]; GENURIN 60 mg/kg, 9 animals): 0
Congestion: no. of animals with score +++ ([2]; GENURIN 60 mg/kg, 9 animals): 0
Edema: no. of animals with score 0 ([2]; GENURIN 60 mg/kg, 9 animals): 6
Edema: no. of animals with score + ([2]; GENURIN 60 mg/kg, 9 animals): 2
Edema: no. of animals with score ++ ([2]; GENURIN 60 mg/kg, 9 animals): 1
Edema: no. of animals with score +++ ([2]; GENURIN 60 mg/kg, 9 animals): 0
Fibrous Exudation: no. of animals with score 0 ([2]; GENURIN 60 mg/kg, 9 animals): 8
Fibrous Exudation: no. of animals with score + ([2]; GENURIN 60 mg/kg, 9 animals): 1
Fibrous Exudation: no. of animals with score ++ ([2]; GENURIN 60 mg/kg, 9 animals): 0
Fibrous Exudation: no. of animals with score +++ ([2]; GENURIN 60 mg/kg, 9 animals): 0
Histopathological score of prostatitis, Overall Average X ± SD ([2]; GENURIN 60 mg/kg, 9 animals): 1.83 ± 0.75
Hyperblastosis: no. of animals with score 0 ([2]; GENURIN 60 mg/kg, 9 animals): 8
Hyperblastosis: no. of animals with score + ([2]; GENURIN 60 mg/kg, 9 animals): 1
Hyperblastosis: no. of animals with score ++ ([2]; GENURIN 60 mg/kg, 9 animals): 0
Hyperblastosis: no. of animals with score +++ ([2]; GENURIN 60 mg/kg, 9 animals): 0
Inflammatory Infiltration: no. of animals with score 0 ([2]; GENURIN 60 mg/kg, 9 animals): 7
Inflammatory Infiltration: no. of animals with score + ([2]; GENURIN 60 mg/kg, 9 animals): 2
Inflammatory Infiltration: no. of animals with score ++ ([2]; GENURIN 60 mg/kg, 9 animals): 0
Inflammatory Infiltration: no. of animals with score +++ ([2]; GENURIN 60 mg/kg, 9 animals): 0
urine, 1 h Period [2, 5]: 6.2 ± 1.3 mL
urine, 2 h Period [2, 5]: 7.9 ± 1.9 mL
urine, 3 h Period [2, 5]: 8.8 ± 1.2 mL

CC(=O)NC(CSC(=S)NCCc1ccccc1)C(=O)O (centres unmarked) [PEITC-NAC, N-acetylcysteine conjugate of phenethyl isothiocyanate]
expression of GSTP1 (Western blot) (GSTP1): effectively induce
Incidence ([3]; at terminal (30 days)): 87.5%
No. of Animals with Tumor ([3]; at terminal (30 days)): 7
No. of Animals without Tumor ([3]; at terminal (30 days)): 1
Inhibition of PC-3 tumor growth [3]: 53.3%
Incidence ([3]; day 7): 75%
No. of Animals without Tumor ([3]; day 7): 2
No. of Animals with Tumor ([3]; day 7 after tumor implantation, diet containing 8 μM/g, 8 animals): 6
Incidence ([3]; day 10): 75%
No. of Animals with Tumor ([3]; day 10): 6
No. of Animals without Tumor ([3]; day 10): 2
Incidence ([3]; day 22): 87.5%
No. of Animals with Tumor ([3]; day 22): 7
No. of Animals without Tumor ([3]; day 22): 1

CC(C)(C)NC(=O)[C@H]1CC[C@H]2[C@@H]3CC[C@H]4NC(=O)C=C[C@]4(C)[C@H]3CC[C@]12C [Proscar]
Average Body Weight (androgen-induced BPH; Proscar 0.5 mg/kg (0.1 mg/rat/day) gavage, one month): 340 ± 30.5 g
Average Volume of Prostate (androgen-induced BPH; [6]): 1.61 ± 0.16 cm^3
Average Weight of Prostate (androgen-induced BPH; [6]): 1.30 ± 0.12 g
Inhibition of Organ Coefficient (androgen-induced BPH; [6]): 11.63%
Organ Coefficient (androgen-induced BPH; [6]): 0.38 ± 0.05%
Acinar Density: no. of animals with score 0 (androgen-induced BPH; Proscar, 9 animals): 1
Acinar Density: no. of animals with score + (androgen-induced BPH; Proscar, 9 animals): 2
Acinar Density: no. of animals with score ++ (androgen-induced BPH; Proscar, 9 animals): 6
Acinar Density: no. of animals with score +++ (androgen-induced BPH; Proscar, 9 animals): 0
Connective tissue proliferation, or papillary hyperplasia: no. of animals with score 0 (androgen-induced BPH; Proscar, 9 animals): 8
Connective tissue proliferation, or papillary hyperplasia: no. of animals with score + (androgen-induced BPH; Proscar, 9 animals): 1
Connective tissue proliferation, or papillary hyperplasia: no. of animals with score ++ (androgen-induced BPH; Proscar, 9 animals): 0
Connective tissue proliferation, or papillary hyperplasia: no. of animals with score +++ (androgen-induced BPH; Proscar, 9 animals): 0
Enlargement of Lumen of Gland: no. of animals with score 0 (androgen-induced BPH; Proscar, 9 animals): 3
Enlargement of Lumen of Gland: no. of animals with score + (androgen-induced BPH; Proscar, 9 animals): 3
Enlargement of Lumen of Gland: no. of animals with score ++ (androgen-induced BPH; Proscar, 9 animals): 3
Enlargement of Lumen of Gland: no. of animals with score +++ (androgen-induced BPH; Proscar, 9 animals): 0
Histopathological score of BPH, Average X ± SD (androgen-induced BPH; Proscar, 9 animals): 3.33 ± 1.11
Secretions of Gland: no. of animals with score 0 (androgen-induced BPH; Proscar, 9 animals): 5
Secretions of Gland: no. of animals with score + (androgen-induced BPH; Proscar, 9 animals): 2
Secretions of Gland: no. of animals with score ++ (androgen-induced BPH; Proscar, 9 animals): 2
Secretions of Gland: no. of animals with score +++ (androgen-induced BPH; Proscar, 9 animals): 0
lumen of prostatic gland and secretary materials in the lumen, versus untreated BPH tissues (typical slide) (androgen-induced BPH; Proscar, FIG. 6.3): reduced
density of prostatic acinars, versus untreated BPH tissues (typical slide) (androgen-induced BPH; Proscar, FIG. 6.4): reduced

C[C@]12CC[C@@H]3c4ccc(O)cc4CC[C@H]3[C@@H]1CC[C@@H]2O [estradiol, reference compound]
Average Weight of Prostate (BPH): 0.73 grams
Organ Coefficient (BPH): 0.23%

N-acetylcysteine conjugate of phenethyl isothiocyanate [PEITC-NAC]
Inhibition of PC-3 tumor growth [3]: 53.3%
